What follows are compounds tested against His-tagged N-terminal ATP binding domain (amino acid residues 9-236) of HSP90α (Homo sapiens, UniProt P07900) (assay: HSP90 inhibitor binding potency: TRF competition binding assay). Conditions: Table I; read-out: Hsp90 IC50 Range.
Outline: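 Competition against biotinylated radicicol for binding to the His-tagged 9-236 ATP domain of HSP90α: 2 h, room temperature, HEPES/MgCl2/KCl/BSA buffer. Streptavidin capture, then europium-labeled anti-His antibody and enhancement solution; europium counts give IC50.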

Row | IC50 [µM] | SMILES
1 | < 1 | COc1ccc(-c2cccnc2)c(C2CC(=O)c3c(C)nc(N)nc3C2)c1 (centres unmarked) [Compound 71, 2-amino-7-(5-methoxy-2-pyridin-3-ylphenyl)-4-methyl-7,8-dihydroquinazolin-5(6H)-one]
2 | 1 to 10 | Cc1nc(N)nc2c1C(=O)CC(c1ccccc1-c1ccncc1)C2 (centres unmarked) [Compound 27, 2-amino-4-methyl-7-(2-pyridin-4-ylphenyl)-7,8-dihydroquinazolin-5(6H)-one]
3 | > 10 | Cc1nc(N)nc2c1C(=O)CC(c1c(Cl)cccc1OCCN1CCN(C)CC1)C2 (centres unmarked) [Compound 154, 2-amino-7-{2-chloro-6-[2-(4-methyl-piperazin-1-yl)-ethoxy]-phenyl}-4-methyl-7,8-dihydro-6H-quinazolin-5-one]
4 | 1 to 10 | Cc1cccc(-c2ccccc2C2CC(=O)c3c(C)nc(N)nc3C2)c1 (centres unmarked) [Compound 50, 2-amino-4-methyl-7-(3′-methyl-1,1′-biphenyl-2-yl)-7,8-dihydroquinazolin-5(6H)-one]
5 | < 1 | Cc1nc(N)nc2c1C(=O)CC(c1c(OCCN3CCOCC3)cccc1-c1cccnc1F)C2 (centres unmarked) [Compound 157, 2-amino-7-[2-(2-fluoro-pyridin-3-yl)-6-(2-morpholin-4-yl-ethoxy)-phenyl]-4-methyl-7,8-dihydro-6H-quinazolin-5-one]
6 | < 1 | Cc1nc(N)nc2c1C(=O)CC(c1c(OCCN)cccc1-c1cccnc1F)C2 (centres unmarked) [Compound 153, 2-amino-7-[2-(2-amino-ethoxy)-6-(2-fluoro-pyridin-3-yl)-phenyl]-4-methyl-7,8-dihydro-6H-quinazolin-5-one]
7 | > 10 | Cc1ccncc1-c1ccccc1C1CC(=O)c2c(C)nc(N)nc2C1 (centres unmarked) [Compound 121, 2-amino-4-methyl-7-[2-(4-methylpyridin-3-yl)phenyl]-7,8-dihydroquinazolin-5(6H)-one]
8 | < 1 | Cc1ccccc1-c1ccccc1C1CC(=O)c2c(C)nc(N)nc2C1 (centres unmarked) [Compound 49, 2-amino-4-methyl-7-(2′-methyl-1,1′-biphenyl-2-yl)-7,8-dihydroquinazolin-5(6H)-one]
9 | < 1 | Cc1nc(N)nc2c1C(=O)CC(c1ccccc1-c1cnccc1Cl)C2 (centres unmarked) [Compound 81, 2-amino-7-[2-(4-chloropyridin-3-yl)phenyl]-4-methyl-7,8-dihydroquinazolin-5(6H)-one]
10 | 1 to 10 | CCOc1cccc(-c2ccccc2C2CC(=O)c3c(C)nc(N)nc3C2)n1 (centres unmarked) [Compound 94, 2-amino-7-[2-(6-ethoxy-pyridin-2-yl)-phenyl]-4-methyl-7,8-dihydro-6H-quinazolin-5-one]
11 | 1 to 10 | COc1ccc(-c2cncnc2)c(C2CC(=O)c3c(C)nc(N)nc3C2)c1 (centres unmarked) [Compound 75, 2-amino-7-(5-methoxy-2-pyrimidin-5-ylphenyl)-4-methyl-7,8-dihydroquinazolin-5(6H)-one]
12 | < 1 | Cc1nc(N)nc2c1C(=O)CC(c1cccnc1-c1ccccc1F)C2 (centres unmarked) [Compound 57, 2-amino-7-[2-(2-fluorophenyl)pyridin-3-yl]-4-methyl-7,8-dihydroquinazolin-5(6H)-one]
13 | < 1 | COc1ccc(-c2cccnc2Cl)c(C2CC(=O)c3c(C)nc(N)nc3C2)c1 (centres unmarked) [Compound 108, 2-amino-7-[2-(2-chloropyridin-3-yl)-5-methoxyphenyl]-4-methyl-7,8-dihydroquinazolin-5(6H)-one]
14 | > 10 | Cc1nc(N)nc2c1C(=O)CC(c1nn(C)cc1Br)C2 (centres unmarked) [Compound 11, 2-amino-7-(4-bromo-1-methyl-1H-pyrazol-3-yl)-4-methyl-7,8-dihydro-6H-quinazolin-5-one]
15 | < 1 | Cc1nc(N)nc2c1C(=O)CC(c1ccccc1-c1cncnc1)C2 (centres unmarked) [Compound 42, 2-amino-4-methyl-7-(2-pyrimidin-5-ylphenyl)-7,8-dihydroquinazolin-5(6H)-one]
16 | < 1 | Cc1nc(N)nc2c1C(=O)CC(c1cnccc1-c1cccnc1F)C2 (centres unmarked) [Compound 61, 2-amino-7-(2-fluoro-[3,4′]bipyridinyl-3′-yl)-4-methyl-7,8-dihydro-6H-quinazolin-5-one]

Same assay, conditions: Table II; read-out: Hsp90 IC50 Range

Row | IC50 [µM] | SMILES
17 | 1 to 10 | Cc1nc(N)nc2c1C(=O)CC(c1ccc(F)cc1-c1cnc(N)nc1)C2 (centres unmarked) [Compound 269, 2-amino-7-[2-(2-amino-pyrimidin-5-yl)-4-fluoro-phenyl]-4-methyl-7,8-dihydro-6H-quinazolin-5-one]
18 | 1 to 10 | COc1cccc(-c2scnc2[C@H]2CC(=O)c3c(C)nc(N)nc3C2)n1 [Compound 297, (R)-2-amino-7-[5-(6-methoxy-pyridin-2-yl)-thiazol-4-yl]-4-methyl-7,8-dihydro-6H-quinazolin-5-one]
19 | < 1 | COc1ncc(-c2cc(F)ccc2[C@@H]2CC(=O)c3c(C)nc(N)nc3C2)nc1OC [Compound 323, (S)-2-amino-7-[2-(5,6-dimethoxy-pyrazin-2-yl)-4-fluoro-phenyl]-4-methyl-7,8-dihydro-6H-quinazolin-5-one]
20 | 1 to 10 | CCc1nc(N)nc2c1C(=O)CC(c1ccc(F)cc1-c1cccnc1F)C2 (centres unmarked) [Compound 319, 2-amino-4-ethyl-7-[4-fluoro-2-(2-fluoro-pyridin-3-yl)-phenyl]-7,8-dihydro-6H-quinazolin-5-one]
21 | < 1 | COc1nc(-c2cc(F)ccc2C2CC(=O)c3c(C)nc(N)nc3C2)ncc1F (centres unmarked) [Compound 224, 2-amino-7-[4-fluoro-2-(5-fluoro-4-methoxy-pyrimidin-2-yl)-phenyl]-4-methyl-7,8-dihydro-6H-quinazolin-5-one]
22 | 1 to 10 | CNc1cccc(-c2cc(F)ccc2C2CC(=O)c3c(C)nc(N)nc3C2)n1 (centres unmarked) [Compound 295, 2-amino-7-[4-fluoro-2-(6-methylamino-pyridin-2-yl)-phenyl]-4-methyl-7,8-dihydro-6H-quinazolin-5-one]
23 | 1 to 10 | Cc1nc(N)nc2c1C(=O)CC(c1ccccc1)C2C (centres unmarked) [Compound 247, 2-amino-4,8-dimethyl-7-phenyl-7,8-dihydro-6H-quinazolin-5-one]
24 | < 1 | COc1nc(-c2cc(F)ccc2C2CC(=O)c3c(C)nc(N)nc3C2)cnc1F (centres unmarked) [Compound 233, 2-amino-7-[4-fluoro-2-(5-fluoro-6-methoxy-pyrazin-2-yl)-phenyl]-4-methyl-7,8-dihydro-6H-quinazolin-5-one]
25 | < 1 | COc1cc(-n2ccnc2C2CC(=O)c3c(C)nc(N)nc3C2)c(OC)cc1Cl (centres unmarked) [Compound 327, 2-amino-7-[1-(4-chloro-2,5-dimethoxy-phenyl)-1H-imidazol-2-yl]-4-methyl-7,8-dihydro-6H-quinazolin-5-one]
26 | > 10 | COc1nc(-n2ccnc2[C@H]2CC(=O)c3c(C)nc(N)nc3C2)ncc1C [Compound 207, (R)-2-amino-7-[1-(4-methoxy-5-methyl-pyrimidin-2-yl)-1H-imidazol-2-yl]-4-methyl-7,8-dihydro-6H-quinazolin-5-one]
27 | < 1 | COc1cccc(-c2scnc2[C@@H]2CC(=O)c3c(C)nc(N)nc3C2)n1 [Compound 298, (S)-2-amino-7-[5-(6-methoxy-pyridin-2-yl)-thiazol-4-yl]-4-methyl-7,8-dihydro-6H-quinazolin-5-one]
28 | < 1 | Cc1nc(N)nc2c1C(=O)CC(c1nccn1C1CCCC1)C2 (centres unmarked) [Compound 189, 2-amino-7-(1-cyclopentyl-1H-imidazol-2-yl)-4-methyl-7,8-dihydro-6H-quinazolin-5-one]
29 | < 1 | COc1cccc(-n2cc(C(F)(F)F)nc2C2CC(=O)c3c(C)nc(N)nc3C2)n1 (centres unmarked) [Compound 205, 2-amino-7-[1-(6-methoxy-pyridin-2-yl)-4-trifluoromethyl-1H-imidazol-2-yl]-4-methyl-7,8-dihydro-6H-quinazolin-5-one]
30 | < 1 | CCc1c[nH]nc1-n1ccnc1C1CC(=O)c2c(C)nc(N)nc2C1 (centres unmarked) [Compound 200, 2-amino-7-[1-(4-ethyl-1H-pyrazol-3-yl)-1H-imidazol-2-yl]-4-methyl-7,8-dihydro-6H-quinazolin-5-one]
31 | > 10 | Cc1nc(N)nc2c1C(=O)CC(c1ccccc1)C2NC(=O)c1ccccc1 (centres unmarked) [Compound 242, N-(2-amino-4-methyl-5-oxo-7-phenyl-5,6,7,8-tetrahydro-quinazolin-8-yl)-benzamide]
32 | > 10 | Nc1nc(CCc2ccccc2)c2c(n1)CC(c1ccccc1)CC2=O (centres unmarked) [Compound 305, 2-amino-4-phenethyl-7-phenyl-7,8-dihydro-6H-quinazolin-5-one]
33 | < 1 | COc1nc(-c2cc(F)ccc2[C@@H]2CC(=O)c3c(C)nc(N)nc3C2)ncc1C [Compound 275, (S)-2-amino-7-[4-fluoro-2-(4-methoxy-5-methyl-pyrimidin-2-yl)-phenyl]-4-methyl-7,8-dihydro-6H-quinazolin-5-one]
34 | 1 to 10 | COc1cncc(-c2cc(F)ccc2[C@H]2CC(=O)c3c(C)nc(N)nc3C2)n1 [Compound 225, (R)-2-amino-7-[4-fluoro-2-(6-methoxy-pyrazin-2-yl)-phenyl]-4-methyl-7,8-dihydro-6H-quinazolin-5-one]
35 | < 1 | CCc1cccc(-c2cc(F)ccc2C2CC(=O)c3c(C)nc(N)nc3C2)n1 (centres unmarked) [Compound 183, 2-amino-7-[2-(6-ethyl-pyridin-2-yl)-4-fluoro-phenyl]-4-methyl-7,8-dihydro-6H-quinazolin-5-one]
36 | < 1 | Cc1nc(N)nc2c1C(=O)CC(c1ccc(F)cc1OC1CCCC1)C2 (centres unmarked) [Compound 255, 2-amino-7-(2-cyclopentyloxy-4-fluoro-phenyl)-4-methyl-7,8-dihydro-6H-quinazolin-5-one]
37 | 1 to 10 | COc1ccccc1Oc1cc(F)ccc1C1CC(=O)c2c(C)nc(N)nc2C1 (centres unmarked) [Compound 290, 2-amino-7-[4-fluoro-2-(2-methoxy-phenoxy)-phenyl]-4-methyl-7,8-dihydro-6H-quinazolin-5-one]
38 | < 1 | COc1nc(-c2cc(F)ccc2[C@H]2CC(=O)c3c(C)nc(N)nc3C2)ncc1Cl [Compound 299, (R)-2-amino-7-[2-(5-chloro-4-methoxy-pyrimidin-2-yl)-4-fluoro-phenyl]-4-methyl-7,8-dihydro-6H-quinazolin-5-one]

Reference: patent US20070027150A1 (priority 2005, published 2007)
